Data: the supplement of paper PMC10733146

What was measured:
Experiment in all cases: viability relative to DMSO control (fraction); higher = less drug effect (more viable cells)
Settings in all cases: 48 h
[1] = compound: CC(C)(C)c1cc(NC(=O)Nc2ccc(-c3cn4c(n3)sc3cc(OCCN5CCOCC5)ccc34)cc2)no1 [Quizartinib]
Method in brief: (§1)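 In 384-well plates with compounds pre-plated at five concentrations (one well per concentration), primary mononuclear tumour cells were plated at 4 × 10^4 cells per well. The cells came from blood or bone marrow by Ficoll isolation or from processed lymph node, and were used fresh or cryopreserved. Culture ran for 48 h at 37 °C and 5% CO2 in RPMI-1640 containing penicillin/streptomycin, L-glutamine and human serum. Viability was read as CellTiter-Glo luminescence, normalised to the median of 16 inner DMSO wells.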

[2] = compound: CC(C)(C)OC(=O)Nc1ccc(-c2cc(C(=O)NCCCCCCC(=O)NO)no2)cc1
Method in brief: as §1

[3] = compound: Cc1[nH]c2ccccc2c1CCNCc1ccc(/C=C/C(=O)NO)cc1 [Panobinostat]
Method in brief: as §1

[4] = compound: O=C(NCC1(c2nc(-c3ccccc3)cs2)CCOCC1)c1cccc(-c2noc(C(F)(F)F)n2)c1 [TMP269]
Method in brief: as §1

[5] = compound: Cc1ccc(NC(=O)c2ccc(CN3CCN(C)CC3)cc2)cc1Nc1nccc(-c2cccnc2)n1 [Imatinib]
Method in brief: as §1

[6] = compound: CC(C)C[C@H](NC(=O)[C@H](Cc1ccccc1)NC(=O)c1cnccn1)B(O)O [Bortezomib]
Method in brief: as §1

[7] = compound: CC[C@@H]1C(=O)N(C)c2cnc(Nc3ccc(C(=O)N[C@H]4CC[C@H](N5CCN(CC6CC6)CC5)CC4)cc3OC)nc2N1C(C)C [BI6727]
Method in brief: as §1

[8] = compound: OC[C@H]1O[C@@H](n2cnc3c2N=CNC[C@H]3O)C[C@@H]1O [Pentostatin]
Method in brief: as §1

[9] = compound: CC[C@]1(O)C[C@H]2CN(CCc3c([nH]c4ccccc34)[C@@](C(=O)OC)(c3cc4c(cc3OC)N(C=O)[C@H]3[C@@](O)(C(=O)OC)[C@H](OC(C)=O)[C@]5(CC)C=CCN6CC[C@]43[C@@H]65)C2)C1 [Vincristine]
Method in brief: as §1

[10] = compound: CC(=O)[C@]1(O)Cc2c(O)c3c(c(O)c2[C@@H](O[C@H]2C[C@H](N)[C@H](O)[C@H](C)O2)C1)C(=O)c1ccccc1C3=O [Idarubicin]
Method in brief: as §1

[11] = compound: COc1nc(N)nc2c1ncn2[C@@H]1O[C@H](CO)[C@@H](O)[C@@H]1O [Nelarabine]
Method in brief: as §1

[12] = compound: COc1cc(OC)c(/C=C/S(=O)(=O)Cc2ccc(OC)c(NCC(=O)O)c2)c(OC)c1 [Rigosertib]
Method in brief: as §1

[13] = compound: CCCS(=O)(=O)Nc1ccc(F)c(C(=O)c2c[nH]c3ncc(-c4ccc(Cl)cc4)cc23)c1F [Vemurafenib]
Method in brief: as §1

[14] = compound: CC(C)C[C@H](NC(=O)[C@H](CCc1ccccc1)NC(=O)CN1CCOCC1)C(=O)N[C@@H](Cc1ccccc1)C(=O)N[C@@H](CC(C)C)C(=O)[C@@]1(C)CO1 [Carfilzomib]
Method in brief: as §1

Test System: primary DLBCL patient cells (S082)
- viability ([1]; 0.016 µM): 1.06
- viability ([1]; 0.08 µM): 1.13
- viability ([1]; 0.4 µM): 1.01
- viability ([1]; 2 µM): 1.07
- viability ([1]; 10 µM): 1.15
- viability ([2]; 0.024 µM): 0.786
- viability ([2]; 0.12 µM): 0.499
- viability ([2]; 0.6 µM): 0.13
- viability ([2]; 3 µM): 0.0294
- viability ([2]; 15 µM): 0.0162
- viability ([3]; 0.00064 µM): 0.781
- viability ([3]; 0.0032 µM): 0.404
- viability ([3]; 0.016 µM): 0.0415
- viability ([3]; 0.08 µM): 0.0242
- viability ([3]; 0.4 µM): 0.0275
- viability ([4]; 0.024 µM): 0.909
- viability ([4]; 0.12 µM): 0.885
- viability ([4]; 0.6 µM): 0.891
- viability ([4]; 3 µM): 0.819
- viability ([4]; 15 µM): 0.873
- viability ([5]; 0.016 µM): 1.08
- viability ([5]; 0.4 µM): 1.2
- viability ([5]; 2 µM): 1.16
- viability ([5]; 10 µM): 1.36
- viability ([6]; 0.008 µM): 0.846
- viability ([6]; 0.04 µM): 0.987
- viability ([6]; 0.2 µM): 0.842
- viability ([6]; 1 µM): 0.899
- viability ([6]; 5 µM): 0.882
- viability ([7]; 0.024 µM): 0.916
- viability ([7]; 0.12 µM): 0.857
- viability ([7]; 0.6 µM): 0.623
- viability ([7]; 3 µM): 0.351
- viability ([7]; 15 µM): 0.256
- viability ([8]; 0.03 µM): 0.964
- viability ([8]; 0.15 µM): 0.887
- viability ([8]; 0.75 µM): 0.915
- viability ([8]; 3.75 µM): 0.825
- viability ([8]; 18.76 µM): 0.837
- viability ([9]; 0.016 µM): 0.609
- viability ([9]; 0.08 µM): 0.561
- viability ([9]; 0.4 µM): 0.474
- viability ([9]; 2 µM): 0.446
- viability ([9]; 10 µM): 0.396
- viability ([10]; 0.024 µM): 0.992
- viability ([10]; 0.12 µM): 0.622
- viability ([10]; 0.6 µM): 0.328
- viability ([10]; 3 µM): 0.0161
- viability ([10]; 15 µM): 0.0147
- viability ([11]; 0.024 µM): 1.06
- viability ([11]; 0.12 µM): 1.05
- viability ([11]; 0.6 µM): 0.961
- viability ([11]; 3 µM): 1
- viability ([11]; 15 µM): 0.76
- viability ([12]; 0.008 µM): 0.954
- viability ([12]; 0.04 µM): 0.973
- viability ([12]; 0.2 µM): 0.931
- viability ([12]; 1 µM): 0.771
- viability ([12]; 5 µM): 0.524
- viability ([13]; 0.024 µM): 0.979
- viability ([13]; 0.12 µM): 0.989
- viability ([13]; 0.6 µM): 0.988
- viability ([13]; 3 µM): 1.03
- viability ([13]; 15 µM): 1.05
- viability ([14]; 0.00016 µM): 0.895
- viability ([14]; 0.0008 µM): 1.01
- viability ([14]; 0.004 µM): 0.0334
- viability ([14]; 0.02 µM): 0.018
- viability ([14]; 0.1 µM): 0.0218

Test System: primary FL patient cells (S022)
- viability ([1]; 0.016 µM): 1.01
- viability ([1]; 0.08 µM): 1.04
- viability ([1]; 0.4 µM): 1.01
- viability ([1]; 2 µM): 1.21
- viability ([1]; 10 µM): 0.998
- viability ([2]; 0.024 µM): 0.921
- viability ([2]; 0.12 µM): 0.849
- viability ([2]; 0.6 µM): 0.939
- viability ([2]; 3 µM): 0.84
- viability ([2]; 15 µM): 0.204
- viability ([3]; 0.00064 µM): 0.899
- viability ([3]; 0.0032 µM): 0.843
- viability ([3]; 0.016 µM): 0.514
- viability ([3]; 0.08 µM): 0.23
- viability ([3]; 0.4 µM): 0.17
- viability ([4]; 0.024 µM): 1.22
- viability ([4]; 0.12 µM): 0.977
- viability ([4]; 0.6 µM): 1.2
- viability ([4]; 3 µM): 0.958
- viability ([4]; 15 µM): 0.915
- viability ([5]; 0.08 µM): 1.06
- viability ([5]; 0.4 µM): 1.05
- viability ([5]; 2 µM): 0.946
- viability ([5]; 10 µM): 0.909
- viability ([6]; 0.008 µM): 1
- viability ([6]; 0.04 µM): 1.05
- viability ([6]; 0.2 µM): 0.957
- viability ([6]; 1 µM): 0.931
- viability ([6]; 5 µM): 0.885
- viability ([7]; 0.024 µM): 1.04
- viability ([7]; 0.12 µM): 0.901
- viability ([7]; 0.6 µM): 0.959
- viability ([7]; 3 µM): 0.785
- viability ([7]; 15 µM): 0.178
- viability ([8]; 0.03 µM): 1.1
- viability ([8]; 0.15 µM): 0.939
- viability ([8]; 0.75 µM): 1.13
- viability ([8]; 3.75 µM): 0.877
- viability ([8]; 18.76 µM): 1.02
- viability ([9]; 0.016 µM): 0.479
- viability ([9]; 0.08 µM): 0.448
- viability ([9]; 0.4 µM): 0.377
- viability ([9]; 2 µM): 0.349
- viability ([9]; 10 µM): 0.255
- viability ([10]; 0.024 µM): 0.94
- viability ([10]; 0.12 µM): 0.509
- viability ([10]; 0.6 µM): 0.178
- viability ([10]; 3 µM): 0.182
- viability ([10]; 15 µM): 0.0171
- viability ([11]; 0.024 µM): 1.03
- viability ([11]; 0.12 µM): 1.1
- viability ([11]; 0.6 µM): 0.93
- viability ([11]; 3 µM): 0.902
- viability ([11]; 15 µM): 0.811
- viability ([12]; 0.008 µM): 1.02
- viability ([12]; 0.04 µM): 0.951
- viability ([12]; 0.2 µM): 1.02
- viability ([12]; 1 µM): 0.919
- viability ([12]; 5 µM): 0.865
- viability ([13]; 0.024 µM): 0.992
- viability ([13]; 0.12 µM): 1.17
- viability ([13]; 0.6 µM): 0.965
- viability ([13]; 3 µM): 1.05
- viability ([13]; 15 µM): 1.22
- viability ([14]; 0.00016 µM): 0.875
- viability ([14]; 0.0008 µM): 0.117
- viability ([14]; 0.004 µM): 0.0482
- viability ([14]; 0.02 µM): 0.0455
- viability ([14]; 0.1 µM): 0.0491
